We go through 2 compounds from patent US6448287B1 (priority 1999, dated 2002).

For data set [1] the following is noted: male, human, in vivo, iv. The protocol: (§1) A person with diagnosed metastatic prostate cancer was infused intravenously with […] sodium ascorbate in sterile water over an eighty minute period. Blood samples were taken at regular intervals over a twenty-four hour period, frozen, and then analyzed for ascorbate content using a colorimetric assay. The ascorbate plasma concentration was analyzed in a prostate cancer patient given a 60 gram intravenous infusion of sodium ascorbate over an 80 minute period. […] The plasma volume Vp, was fixed at 30 dl. […] Predicted plasma ascorbate levels from a two compartment, four parameter pharmacokinetic model of ascorbate transport and clearance in blood. […] Infusion is modeled as continuous. Parameter values for the compartmental model are as follows: KX=0.124 min^−1, K1=0.124 min^−1, K2=0.038 min^−1. The plasma volume Vp, was fixed at 30 dl. A phase one clinical trial is currently under way to assess the safety of continuous ascorbate infusions, and is currently near completion.

For data set [2], the system named is SW620 hollow fiber tumors. In words: cells. The following applies: Homo sapiens, SW-620, read-out: ascorbate LC50 (dose reducing surviving fraction to half the control value).
Protocol: (§3) SW620 hollow fiber solid tumors were grown as previously described. […] SW620 colon carcinoma cells were prepared in cell culture medium at a concentration of 10^7 cells/ml and injected into the hollow fibers. The fibers were then heat sealed at roughly 2 cm intervals to trap the cells inside them. SW620 hollow fibers were then cultured in Petri dishes for three days. After three days, the hollow fibers are transferred to stirred medium either by moving them to spinner flasks containing 50 ml cell culture medium stirred at 150 rpm by a magnetic stirrer or by transferring them to six-well plates placed on an orbital shaker at 150 rpm. Cell culture medium was replenished on days three and six. […] After one or two days incubation on an orbital shaker, the hollow fiber tumors were rinsed and the cells were extruded out of the fibers with trypsin. The cylindrical tumor cell mass was exposed to trypsin while pipetting up and down to form a single cell suspension. Cell culture medium was then added to stop trypsin action. Surviving fractions were determined as previously described. Briefly, cells were transferred to ninety-six-well plates at a concentration of 5000 cells per well and incubated for six days. The surviving cell population was then measured using the SRB colorimetric assay. Surviving fraction was expressed as the ratio of the SRB staining at a given dose to that for cells from untreated hollow fiber tumors.
(§4) The surviving fractions without ascorbate (denoted SFO) were analyzed along with the doses of ascorbate required to reduce the surviving fraction to half the SFO value, denoted LC50. Standard deviations for SFO and LC50 values were analyzed by the curve-fitting program KalediaGraph (Synergy Software).
(§5) Data from three replicate experiments were pooled. The doses of ascorbate required to reduce the surviving fraction to half the control value were denoted as LC50. Standard deviations on LC50 values were estimated by the curve-fitting program kaleidaGraph (Synergy Software).
The nature of data set [3]: Toxicity test in cell monolayers, ECV-304. Conditions: human, ECV-304 endothelial cell monolayer; read-out: LC50. In kind it is cell-based. The procedure: (§2) In solid tumors, proliferating cells are sometimes more sensitive to treatment than quiescent, non-proliferating cells. To investigate this in cell monolayers, we used sparse plating densities (6K/well in a 96 well plate) to allow cell proliferation and confluent densities (24K/well in a 96 well plate) to simulate quiescent cells. Cells were plated in 96 well plates at sparse or confluent densities and then incubated four days in growth medium supplemented with various doses of antioxidants. After incubation, cell numbers were determined by standard […] techniques. Data were analyzed by scaling the cell number at any given antioxidant dose to that of the control and fitting the dose-response data to a sigmoid curve. Values of LC50, the dose required to reduce cell number by fifty percent relative to untreated controls, were computed from the sigmoid data fit.

The conditions of data set [4]: humans, intravenous infusion, peak level; cited from earlier work.
The subject of data set [5] is Mia PaCa (Pancreatic Carcinoma). In words: Toxicity test in cell monolayers, Mia PaCa. In kind it is cell-based. Conditions: Homo sapiens, MIA PaCa-2, 96 h, lipoic acid as sodium salt. The protocol:
as §2

In another data set the test system is SK-MEL (Melanoma). In words: Toxicity test in cell monolayers, SK-MEL. The following applies: Homo sapiens, 96 h, lipoic acid as sodium salt. In kind it is cell-based. The procedure:
as §2

In data set [6] the test system is SW620 (Colon Adenocarcinoma). As to the kind of experiment: Toxicity test in cell monolayers, SW620. In kind it is cell-based. Conditions: Homo sapiens, SW-620, 96 h, lipoic acid as sodium salt. The protocol: as §2
In another data set the test system is MCF-7 (Breast Carcinoma). In words: Toxicity test in cell monolayers, MCF-7. In kind it is cell-based. The following applies: Homo sapiens, MCF7, 96 h, lipoic acid as sodium salt. The protocol:
as §2

The test system of data set [7] is SW620 hollow fiber tumors. Conditions: hollow fiber solid tumor model, background statement; cited from earlier work.
For data set [8], the system named is SW620 hollow fiber tumors.
Protocol: as §3, §4, §5
The nature of data set [9]: Phase one clinical trial of continuous ascorbate infusions (safety). Conditions: doses up to 50 g/day. The protocol: as §1
A further data set has as its system B16 melanoma. As to the kind of experiment: Murine tumor model: B16 melanoma in C57 mice. In kind it is in vivo. The procedure:
C57 mice were divided into groups of twenty and inoculated by B16 melanoma cells subcutaneously. After forty-eight hours, treatments were administered once every other day for a five week period by subcutaneous injection near the tumor site. Tumor size was measured on days ten, seventeen, and twenty-four of treatment. […]

The structures appear in SMILES notation. Converted amounts (≈) assume the structure as drawn. Like-named read-outs stand apart in the source and are kept apart here.

As for `O=C1O[C@H]([C@@H](O)CO)C(O)=C1O` [Ascorbate, ascorbic acid], in data set [1], the K1 was determined as 0.124 min⁻¹. Besides, in data set [1], the K2 was found to be 0.038 min⁻¹. The compound further gave a KX in data set [1] of 0.124 min⁻¹. In addition, in data set [1], the peak plasma value was 460 mg/dL. Moreover, the CC50 in data set [2] is 4900 µg/mL (≈ 27.8 mM); in data set [5] (read-out: LC50, Mia PaCa, confluent density (24K/well), four days incubation) it was 3080 ± 330 µg/mL; in data set [5] (read-out: LC50, Mia PaCa, sparse density (6K/well), four days incubation) it was 530 ± 60 µg/mL; in the data set with SK-MEL (Melanoma) (read-out: LC50, SK-MEL, confluent density (24K/well), four days incubation), 780 ± 160 µg/mL; in the data set on SK-MEL (Melanoma) (read-out: LC50, SK-MEL, sparse density (6K/well), four days incubation), 150 ± 20 µg/mL; in data set [6] (read-out: LC50, SW620, confluent density (24K/well), four days incubation) it was 390 ± 140 µg/mL. Besides, the CC50 in data set [6] (read-out: LC50, SW620, sparse density (6K/well), four days incubation) was 300 ± 40 µg/mL; with MCF-7 (Breast Carcinoma) (read-out: LC50, MCF-7, confluent density (24K/well), four days incubation), 230 ± 30 µg/mL; with MCF-7 (Breast Carcinoma) (read-out: LC50, MCF-7, sparse density (6K/well), four days incubation), 120 ± 10 µg/mL. Moreover, the CC50 at 4 days in data set [3] came to 1490 ± 160 µg/mL (≈ 8.46 mM). Also, the “maximum plasma ascorbic acid concentration generally achievable” value in data set [4] was “roughly 500 mg/dL”. Also, the “ascorbate concentration that may be required to effectively treat tumors” value in [7] was above 500 mg/dL. For the same compound, in data set [8] (52 mg/dL ascorbate for forty-eight hours, based on the data in EXAMPLE 2), the surviving fraction entry was “greater than ninety percent”. For the same compound, in data set [9], the “safety of continuous ascorbate infusions” value is “found safe”.

As to `O=C(O)CCCCC1CCSS1` (racemic) [Lipoic Acid, DL-α-Lipoic Acid (DL-6,8-Thioctic Acid)], in the data set with B16 melanoma (day twenty-four, control 70%), the “Animal Survival (percent)” value turned out to be 90%. In the data set on B16 melanoma (day twenty-four, groups of twenty, control 14/20), the “Animal Survival (survivors/group)” value is given as 18/20. For the same compound, in the data set with B16 melanoma (measured on days ten, seventeen and twenty-four of treatment), the “tumor size compared with the control group” value is “significantly smaller”. Further, in data set [8] (lipoic acid 5 mg/dl or 20 mg/dl, 48 hours), the “toxic effect of lipoic acid itself (surviving fraction without ascorbate, SFO)” value is reported as “exhibited a toxic effect”.
